From PubChem BioAssay AID1259407 (Chemical Carcinogenesis Research Information System (CCRIS), 2018)
Activity calls are given as the source filed them. The rule behind the calls is not given here.

Tested on: CCRIS mutagenicity, Ames/micronucleus/aberration tests
Test: CCRIS mutagenicity studies
[1] = Test System: AMES SALMONELLA TYPHIMURIUM, Strain/Indicator: TA100, Metabolic Activation: NONE, Method: STANDARD PLATE
[2] = Test System: AMES SALMONELLA TYPHIMURIUM, Strain/Indicator: TA98, Metabolic Activation: NONE, Method: STANDARD PLATE
[3] = Test System: AMES SALMONELLA TYPHIMURIUM, Strain/Indicator: TA98, Metabolic Activation: RAT, LIVER, S-9, AROCLOR 1254, Method: STANDARD PLATE
[4] = Test System: AMES SALMONELLA TYPHIMURIUM, Strain/Indicator: TA100, Metabolic Activation: RAT, LIVER, S-9, AROCLOR 1254, Method: STANDARD PLATE
[5] = Test System: AMES SALMONELLA TYPHIMURIUM, Strain/Indicator: TA1535, Metabolic Activation: NONE, Method: STANDARD PLATE
[6] = Test System: AMES SALMONELLA TYPHIMURIUM, Strain/Indicator: TA1535, Metabolic Activation: RAT, LIVER, S-9, AROCLOR 1254, Method: STANDARD PLATE
[7] = Test System: AMES SALMONELLA TYPHIMURIUM, Strain/Indicator: TA1537, Metabolic Activation: NONE, Method: STANDARD PLATE
[8] = Test System: AMES SALMONELLA TYPHIMURIUM, Strain/Indicator: TA1537, Metabolic Activation: RAT, LIVER, S-9, AROCLOR 1254, Method: STANDARD PLATE

## COC1=C(OC)C(=O)C(C)=CC1=O
Test System: AMES SALMONELLA TYPHIMURIUM, Strain/Indicator: TA98, Metabolic Activation: NONE, Method: PREINCUBATION
  mutagenic call: inactive; negative
Test System: AMES SALMONELLA TYPHIMURIUM, Strain/Indicator: TA98, Metabolic Activation: RAT, LIVER, S-9, PHENOBARBITAL AND 5,6-BENZOFLAVONE, Method: PREINCUBATION
  mutagenic call: inactive; negative
Test System: AMES SALMONELLA TYPHIMURIUM, Strain/Indicator: TA100, Metabolic Activation: NONE, Method: PREINCUBATION
  mutagenic call: inactive; negative
Test System: AMES SALMONELLA TYPHIMURIUM, Strain/Indicator: TA100, Metabolic Activation: RAT, LIVER, S-9, PHENOBARBITAL AND 5,6-BENZOFLAVONE, Method: PREINCUBATION
  mutagenic call: inactive; negative
Test System: AMES SALMONELLA TYPHIMURIUM, Strain/Indicator: TA102, Metabolic Activation: NONE, Method: PREINCUBATION
  mutagenic call: inactive; negative
Test System: AMES SALMONELLA TYPHIMURIUM, Strain/Indicator: TA102, Metabolic Activation: RAT, LIVER, S-9, PHENOBARBITAL AND 5,6-BENZOFLAVONE, Method: PREINCUBATION
  mutagenic call: inactive; negative
Test System: AMES SALMONELLA TYPHIMURIUM, Strain/Indicator: TA104, Metabolic Activation: NONE, Method: PREINCUBATION
  mutagenic call: inactive; negative
Test System: AMES SALMONELLA TYPHIMURIUM, Strain/Indicator: TA104, Metabolic Activation: RAT, LIVER, S-9, PHENOBARBITAL AND 5,6-BENZOFLAVONE, Method: PREINCUBATION
  mutagenic call: inactive; negative
Test System: AMES SALMONELLA TYPHIMURIUM, Strain/Indicator: TA2637, Metabolic Activation: NONE, Method: PREINCUBATION
  mutagenic call: inactive; negative
Test System: AMES SALMONELLA TYPHIMURIUM, Strain/Indicator: TA2637, Metabolic Activation: RAT, LIVER, S-9, PHENOBARBITAL AND 5,6-BENZOFLAVONE, Method: PREINCUBATION
  mutagenic call: inactive; negative

## Nc1c[n+](N2CCOCC2)no1
Test System: E. COLI, Strain/Indicator: WP2 UVRA (PKM101), Metabolic Activation: NONE, Method: STANDARD PLATE
  mutagenic call: inactive; negative
Test System: E. COLI, Strain/Indicator: WP2 UVRA/OXYR (PKM101), Metabolic Activation: NONE, Method: STANDARD PLATE
  mutagenic call: active; positive

## C[C@@H](C(=O)OC(C)(C)C)N(N=[N+]=[N-])C(=O)OC(C)(C)C
[1]
  mutagenic call: active; positive

## O=C1CCC(=O)N1c1ccc(Cl)c(Cl)c1
[2]
  mutagenic call: inactive; negative
[3]
  mutagenic call: inactive; negative
[1]
  mutagenic call: inactive; negative
[4]
  mutagenic call: inactive; negative

## Cc1ccccc1NS(=O)(=O)c1cccc2cccnc12
[2]
  mutagenic call: inactive; negative
[3]
  mutagenic call: inactive; negative
[1]
  mutagenic call: inactive; negative
[4]
  mutagenic call: inactive; negative
[5]
  mutagenic call: inactive; negative
[6]
  mutagenic call: inactive; negative
[7]
  mutagenic call: inactive; negative
[8]
  mutagenic call: inactive; negative

## CCc1cccc2c3c([nH]c12)C(C)(CC)OCC3 (configuration not stated)
[2]
  mutagenic call: inactive; negative
Test System: AMES SALMONELLA TYPHIMURIUM, Strain/Indicator: TA98, Metabolic Activation: RAT, LIVER, S-9, Method: STANDARD PLATE
  mutagenic call: inactive; negative
[1]
  mutagenic call: inactive; negative
Test System: AMES SALMONELLA TYPHIMURIUM, Strain/Indicator: TA100, Metabolic Activation: RAT, LIVER, S-9, Method: STANDARD PLATE
  mutagenic call: inactive; negative
[5]
  mutagenic call: inactive; negative
Test System: AMES SALMONELLA TYPHIMURIUM, Strain/Indicator: TA1535, Metabolic Activation: RAT, LIVER, S-9, Method: STANDARD PLATE
  mutagenic call: inactive; negative
[7]
  mutagenic call: inactive; negative
Test System: AMES SALMONELLA TYPHIMURIUM, Strain/Indicator: TA1537, Metabolic Activation: RAT, LIVER, S-9, Method: STANDARD PLATE
  mutagenic call: inactive; negative
Test System: E. COLI, Strain/Indicator: WP2 UVRA, Metabolic Activation: NONE, Method: STANDARD PLATE
  mutagenic call: inactive; negative
Test System: E. COLI, Strain/Indicator: WP2 UVRA, Metabolic Activation: RAT, LIVER, S-9, Method: STANDARD PLATE
  mutagenic call: inactive; negative

## Cl/C=C/CCl
End Point: IN VITRO CHROMOSOMAL ABERRATIONS, Test System: CHL CELLS, Metabolic Activation: RAT, LIVER, S-9, SODIUM PHENOBARBITAL AND 5,6-BENZOFLAVONE
  mutagenic call: active; positive (structural and ploidy changes)
End Point: IN VITRO CHROMOSOMAL ABERRATIONS, Test System: CHO CELLS, Metabolic Activation: NONE
  mutagenic call: inactive; negative; previous trial yielded positive result at 49.1 ug/ml but no dose-respo
End Point: IN VITRO CHROMOSOMAL ABERRATIONS, Test System: CHO CELLS, Metabolic Activation: RAT, LIVER, S-9, AROCLOR 1254
  mutagenic call: inactive; negative
Test System: AMES SALMONELLA TYPHIMURIUM, Strain/Indicator: RSJ100, Metabolic Activation: NONE, Method: VAPOR PHASE
  mutagenic call: active; positive
Test System: AMES SALMONELLA TYPHIMURIUM, Strain/Indicator: TA98, Metabolic Activation: HAMSTER, LIVER, S-9, AROCLOR 1254, Method: STANDARD PLATE
  mutagenic call: active; positive
Test System: AMES SALMONELLA TYPHIMURIUM, Strain/Indicator: TA98, Metabolic Activation: NONE, Method: DESICCATOR
  mutagenic call: active; positive
[2]
  mutagenic call: active; positive
Test System: AMES SALMONELLA TYPHIMURIUM, Strain/Indicator: TA98, Metabolic Activation: RAT, LIVER, S-9, AROCLOR 1254, Method: DESICCATOR
  mutagenic call: active; positive
[3]
  mutagenic call: active; positive
Test System: AMES SALMONELLA TYPHIMURIUM, Strain/Indicator: TA100, Metabolic Activation: HAMSTER, LIVER, S-9, AROCLOR 1254, Method: STANDARD PLATE
  mutagenic call: active; positive
Test System: AMES SALMONELLA TYPHIMURIUM, Strain/Indicator: TA100, Metabolic Activation: NONE, Method: DESICCATOR
  mutagenic call: active; positive
[1]
  mutagenic call: active; positive
Test System: AMES SALMONELLA TYPHIMURIUM, Strain/Indicator: TA100, Metabolic Activation: RAT, LIVER, S-9, AROCLOR 1254, Method: DESICCATOR
  mutagenic call: active; positive
[4]
  mutagenic call: active; positive
Test System: AMES SALMONELLA TYPHIMURIUM, Strain/Indicator: TA1535, Metabolic Activation: HAMSTER, LIVER, S-9, AROCLOR 1254, Method: STANDARD PLATE
  mutagenic call: active; positive
Test System: AMES SALMONELLA TYPHIMURIUM, Strain/Indicator: TA1535, Metabolic Activation: NONE, Method: DESICCATOR
  mutagenic call: active; positive
[5]
  mutagenic call: active; positive
Test System: AMES SALMONELLA TYPHIMURIUM, Strain/Indicator: TA1535, Metabolic Activation: RAT, LIVER, S-9, AROCLOR 1254, Method: DESICCATOR
  mutagenic call: active; positive
[6]
  mutagenic call: active; positive
Test System: AMES SALMONELLA TYPHIMURIUM, Strain/Indicator: TA1537, Metabolic Activation: HAMSTER, LIVER, S-9, AROCLOR 1254, Method: STANDARD PLATE
  mutagenic call: inactive; negative
[7]
  mutagenic call: inactive; negative
[8]
  mutagenic call: inactive; negative
Test System: AMES SALMONELLA TYPHIMURIUM, Strain/Indicator: TPT100, Metabolic Activation: NONE, Method: VAPOR PHASE
  mutagenic call: active; positive
Test System: UDS HUMAN HEPATOCYTES, Strain/Indicator: THY INCORP, Metabolic Activation: NONE, Method: AUTORADIOGRAPHY
  mutagenic call: active; positive
Test System: UDS RAT HEPATOCYTES, Strain/Indicator: THY INCORP, Metabolic Activation: NONE, Method: AUTORADIOGRAPHY
  mutagenic call: active; positive
Test System: UDS RAT HEPATOCYTES, Strain/Indicator: THY INCORP, Metabolic Activation: NONE, Method: IN VIVO-IN VITRO
  mutagenic call: inactive; negative

## CCN(CC)CCCNc1ccc2ncn3c4ccc(O)cc4c(=O)c1c23
Test System: CHINESE HAMSTER V-79, Strain/Indicator: V-79 (HGPRT)/6-THIOGUANINE, Metabolic Activation: NONE
  mutagenic call: active; positive
